Measured values as given in patent US7632918B2, “Semi-synthetic glycopeptides with antibiotic activity” (Novartis Vaccines and Diagnostics, Inc., priority 2005, dated 2009).
In brackets after ≈: the same amount, converted by molar mass.

Columns and labels:
Assay in all cases: MIC, broth microdilution in Meuller-Hinton broth (NCCLS)
[1] = test system: 533 S. epidermidis; assay type: cell-based, Staphylococus epidermidis; conditions: clinical isolate
Procedure: (§1) Antibacterial activity in vitro was investigated by broth microdilution method in Meuller-Hinton broth as recommended by NCCLS. All strains tested were clinical isolates either sensitive or resistant to natural glycopeptides. Results are reported in the tables as MIC (minimal inhibitory concentration) in μg/ml.
(§2) The glycopeptides were tested against a variety of strains, indicated below, including Staphylococus epidermidis, Staphylococus haemolyticus, glycopeptides-intermediate Staphylococus aureus (GISA), glocopeptide-sensitive Enterococcus faecalis (GSE), and glocopeptide-resistant Enterococcus faecalis (GRE). Results are shown in the table as minimum inhibitory concentration (MIC) in units of μg/ml: […]

[2] = test system: 602 S. haemolyticus; assay type: cell-based, Staphylococus haemolyticus; conditions: clinical isolate
Procedure: as §1, §2

[3] = test system: 560 E. faecalis (GRE); assay type: cell-based, Enterococcus faecalis; conditions: glycopeptide-resistant clinical isolate
Procedure: as §1, §2

[4] = test system: 559 E. faecalis (GSE); assay type: cell-based, Enterococcus faecalis; conditions: glycopeptide-sensitive clinical isolate
Procedure: as §1, §2

[5] = test system: 3797 S. aureus (GISA); assay type: cell-based, Staphylococus aureus; conditions: glycopeptides-intermediate clinical isolate
Procedure: as §1, §2

[6] = test system: 3798 S. aureus (GISA); assay type: cell-based, Staphylococus aureus; conditions: glycopeptides-intermediate clinical isolate
Procedure: as §1, §2

[7] = test system: 568 E. faecium (GSE); assay type: cell-based; conditions: glycopeptide-sensitive clinical isolate
Procedure: as §1, §2

[8] = test system: 569 E. faecium (GRE); assay type: cell-based; conditions: glycopeptide-resistant clinical isolate
Procedure: as §1, §2

Row | Molecule | MIC 533 S. epidermidis [1] | MIC 602 S. haemolyticus [2] | MIC 560 E. faecalis (GRE) [3] | MIC 559 E. faecalis (GSE) [4] | MIC 3797 S. aureus (GISA) [5] | MIC 3798 S. aureus (GISA) [6] | MIC 568 E. faecium (GSE) [7] | MIC 569 E. faecium (GRE) [8]
1 | CCCCc1ccc(CNCC(=O)NC2(C)CC(OC3C(Oc4c5cc6cc4Oc4ccc(cc4Cl)C(O)C(NC(=O)C(CC(C)C)NC)C(=O)NC(CC(N)=O)C(=O)NC6C(=O)NC4C(=O)NC(C(=O)NC(C(=O)NC(C)C67CC8CC(CC(C8)C6)C7)c6cc(O)cc(O)c6-c6cc4ccc6O)C(OC4CC(C)(N)C(O)C(C)O4)c4ccc(cc4)O5)OC(CO)C(O)C3O)OC(C)C2O)cc1 (stereo not drawn) [Compound 264] | 4 µg/mL (≈ 2.08 µM) | 8 µg/mL (≈ 4.16 µM) | 8 µg/mL (≈ 4.16 µM) | 4 µg/mL (≈ 2.08 µM) | 8 µg/mL (≈ 4.16 µM) | 16 µg/mL (≈ 8.32 µM) | 4 µg/mL (≈ 2.08 µM) | 8 µg/mL (≈ 4.16 µM)
2 | CCCCc1ccc(CNCC(=O)NC2(C)CC(OC3C(Oc4c5cc6cc4Oc4ccc(cc4Cl)C(O)C4NC(=O)C(NC(=O)C6NC(=O)C(CC(N)=O)NC(=O)C(NC(=O)C(CC(C)C)NC)C(O)c6ccc(c(Cl)c6)O5)c5ccc(O)c(c5)-c5c(O)cc(O)cc5C(C(=O)NCc5ccc(F)cc5)NC4=O)OC(CO)C(O)C3O)OC(C)C2O)cc1 (stereo not drawn) [Compound 276] | 0.5 µg/mL (≈ 0.284 µM) | 2 µg/mL (≈ 1.14 µM) | 16 µg/mL (≈ 9.09 µM) | 4 µg/mL (≈ 2.27 µM) | 2 µg/mL (≈ 1.14 µM) | 2 µg/mL (≈ 1.14 µM) | 2 µg/mL (≈ 1.14 µM) | 16 µg/mL (≈ 9.09 µM)
3 | CCCCCCCCOc1ccc(CNCC(=O)NC2(C)CC(OC3C(Oc4c5cc6cc4Oc4ccc(cc4Cl)C(O)C4NC(=O)C(NC(=O)C6NC(=O)C(CC(N)=O)NC(=O)C(NC(=O)C(CC(C)C)NC)C(O)c6ccc(c(Cl)c6)O5)c5ccc(O)c(c5)-c5c(O)cc(O)cc5C(C(=O)NCc5ccc(F)cc5)NC4=O)OC(CO)C(O)C3O)OC(C)C2O)cc1 (stereo not drawn) [Compound 277] | 4 µg/mL (≈ 2.18 µM) | 8 µg/mL (≈ 4.37 µM) | 8 µg/mL (≈ 4.37 µM) | 4 µg/mL (≈ 2.18 µM) | 8 µg/mL (≈ 4.37 µM) | 4 µg/mL (≈ 2.18 µM) | 4 µg/mL (≈ 2.18 µM) | 8 µg/mL (≈ 4.37 µM)
4 | CNC(CC(C)C)C(=O)NC1C(=O)NC(CC(N)=O)C(=O)NC2C(=O)NC3C(=O)NC(C(=O)NC(C(=O)O)c4cc(O)cc(O)c4-c4cc3ccc4O)C(OC3CC(C)(N)C(O)C(C)O3)c3ccc(cc3)Oc3cc2cc(c3OC2OC(CO)C(O)C(O)C2OC2CC(C)(NC(=O)CNCc3cc4ccccc4c4ccccc34)C(O)C(C)O2)Oc2ccc(cc2Cl)C1O (stereo not drawn) [Compound 287] | 2 µg/mL (≈ 1.11 µM) | 2 µg/mL (≈ 1.11 µM) | >64 µg/mL | 2 µg/mL (≈ 1.11 µM) | 16 µg/mL (≈ 8.86 µM) | 16 µg/mL (≈ 8.86 µM) | 2 µg/mL (≈ 1.11 µM) | >64 µg/mL
5 | CNC(CC(C)C)C(=O)NC1C(=O)NC(CC(N)=O)C(=O)NC2C(=O)NC3C(=O)NC(C(=O)NC(C(=O)NCc4ccc(F)cc4)c4cc(O)cc(O)c4-c4cc3ccc4O)C(O)c3ccc(c(Cl)c3)Oc3cc2cc(c3OC2OC(CO)C(O)C(O)C2OC2CC(C)(N)C(O)C(C)O2)Oc2ccc(cc2Cl)C1O (stereo not drawn) [Compound 288] | 2 µg/mL (≈ 1.29 µM) | 1 µg/mL (≈ 0.643 µM) | >64 µg/mL | 0.13 µg/mL (≈ 0.0835 µM) | 4 µg/mL (≈ 2.57 µM) | 4 µg/mL (≈ 2.57 µM) | 0.13 µg/mL (≈ 0.0835 µM) | >64 µg/mL
6 | CNC(CC(C)C)C(=O)NC1C(=O)NC(CC(N)=O)C(=O)NC2C(=O)NC3C(=O)NC(C(=O)NC(C(=O)O)c4cc(O)cc(O)c4-c4cc3ccc4O)C(O)c3ccc(c(Cl)c3)Oc3cc2cc(c3OC2OC(CO)C(O)C(O)C2OC2CC(C)(NC(=O)CNCc3ccc(C(F)(F)F)cc3)C(O)C(C)O2)Oc2ccc(cc2Cl)C1O (stereo not drawn) [Compound 290] | 4 µg/mL (≈ 2.4 µM) | 4 µg/mL (≈ 2.4 µM) | >64 µg/mL | 2 µg/mL (≈ 1.2 µM) | 4 µg/mL (≈ 2.4 µM) | 4 µg/mL (≈ 2.4 µM) | 4 µg/mL (≈ 2.4 µM) | >64 µg/mL
7 | CNC(CC(C)C)C(=O)NC1C(=O)NC(CC(N)=O)C(=O)NC2C(=O)NC3C(=O)NC(C(=O)NC(C(=O)O)c4cc(O)cc(O)c4-c4cc3ccc4O)C(O)c3ccc(c(Cl)c3)Oc3cc2cc(c3OC2OC(CO)C(O)C(O)C2OC2CC(C)(NC(=O)CNCc3ccc(F)cc3)C(O)C(C)O2)Oc2ccc(cc2Cl)C1O (stereo not drawn) [Compound 291] | 4 µg/mL (≈ 2.48 µM) | 4 µg/mL (≈ 2.48 µM) | 8 µg/mL (≈ 4.96 µM) | 1 µg/mL (≈ 0.619 µM) | 4 µg/mL (≈ 2.48 µM) | 4 µg/mL (≈ 2.48 µM) | 1 µg/mL (≈ 0.619 µM) | 8 µg/mL (≈ 4.96 µM)
8 | CNC(CC(C)C)C(=O)NC1C(=O)NC(CC(N)=O)C(=O)NC2C(=O)NC3C(=O)NC(C(=O)NC(C(=O)O)c4cc(O)cc(O)c4-c4cc3ccc4O)C(OC3CC(C)(N)C(O)C(C)O3)c3ccc(cc3)Oc3cc2cc(c3OC2OC(CO)C(O)C(O)C2OC2CC(C)(NC(=O)CNCc3ccc4c(c3)Cc3ccccc3-4)C(O)C(C)O2)Oc2ccc(cc2Cl)C1O (stereo not drawn) [Compound 292] | 4 µg/mL (≈ 2.23 µM) | 4 µg/mL (≈ 2.23 µM) | 32 µg/mL (≈ 17.8 µM) | 2 µg/mL (≈ 1.12 µM) | 8 µg/mL (≈ 4.46 µM) | 8 µg/mL (≈ 4.46 µM) | 2 µg/mL (≈ 1.12 µM) | 32 µg/mL (≈ 17.8 µM)
9 | CNC(CC(C)C)C(=O)NC1C(=O)NC(CC(N)=O)C(=O)NC2C(=O)NC3C(=O)NC(C(=O)NC(C(=O)O)c4cc(O)cc(O)c4-c4cc3ccc4O)C(OC3CC(C)(N)C(O)C(C)O3)c3ccc(cc3)Oc3cc2cc(c3OC2OC(CO)C(O)C(O)C2OC2CC(C)(NC(=O)CNCc3ccc(F)cc3)C(O)C(C)O2)Oc2ccc(cc2Cl)C1O (stereo not drawn) [Compound 293] | 4 µg/mL (≈ 2.32 µM) | 4 µg/mL (≈ 2.32 µM) | 16 µg/mL (≈ 9.29 µM) | 4 µg/mL (≈ 2.32 µM) | 8 µg/mL (≈ 4.64 µM) | 8 µg/mL (≈ 4.64 µM) | 4 µg/mL (≈ 2.32 µM) | 16 µg/mL (≈ 9.29 µM)
10 | CNC(CC(C)C)C(=O)NC1C(=O)NC(CC(N)=O)C(=O)NC2C(=O)NC3C(=O)NC(C(=O)NC(C(=O)O)c4cc(O)cc(O)c4-c4cc3ccc4O)C(OC3CC(C)(N)C(O)C(C)O3)c3ccc(cc3)Oc3cc2cc(c3OC2OC(CO)C(O)C(O)C2OC2CC(C)(NC(=O)CNCc3ccc(C(F)(F)F)cc3)C(O)C(C)O2)Oc2ccc(cc2Cl)C1O (stereo not drawn) [Compound 294] | 1 µg/mL (≈ 0.564 µM) | 1 µg/mL (≈ 0.564 µM) | >64 µg/mL | 0.5 µg/mL (≈ 0.282 µM) | 4 µg/mL (≈ 2.26 µM) | 4 µg/mL (≈ 2.26 µM) | 0.5 µg/mL (≈ 0.282 µM) | >64 µg/mL
11 | CNC(CC(C)C)C(=O)NC1C(=O)NC(CC(N)=O)C(=O)NC2C(=O)NC3C(=O)NC(C(=O)NC(C(=O)O)c4cc(O)cc(O)c4-c4cc3ccc4O)C(O)c3ccc(c(Cl)c3)Oc3cc2cc(c3OC2OC(CO)C(O)C(O)C2OC2CC(C)(NC(=O)CNc3ccc4ccccc4n3)C(O)C(C)O2)Oc2ccc(cc2Cl)C1O (stereo not drawn) [Compound 298] | 8 µg/mL (≈ 4.9 µM) | 8 µg/mL (≈ 4.9 µM) | 64 µg/mL (≈ 39.2 µM) | 2 µg/mL (≈ 1.22 µM) | 8 µg/mL (≈ 4.9 µM) | 8 µg/mL (≈ 4.9 µM) | 4 µg/mL (≈ 2.45 µM) | >64 µg/mL
12 | N′-stilbenylHNCH2CO eremomycin [Compound 192] | 0.5 µg/mL | 0.5 µg/mL | 8 µg/mL | 1 µg/mL | 8 µg/mL | 8 µg/mL | 0.5 µg/mL | 4 µg/mL
